Test results reported in US10925823B2, “Synergistic antioxidant compositions” (The Procter & Gamble Company, priority 2018, dated 2021).

Assay: Oxygen Radical Absorbance Capacity (ORAC) Peroxynitrite Assay
Details: Trolox equivalent; SIN-1 as peroxynitrite source, dihydrorhodamine-123 probe, 37° C.; FIG. 4
Excerpt: The ORAC assay is the most common method for assessing antioxidant activity. It is based on evaluating the capacity of a test material to protect a probe (e.g., a chromagen) from its damage by oxygen radicals (in this case, peroxynitrite). Results are expressed as micromole Trolox Equivalency per gram of the test material:
This methodology is further discussed in: “Development and validation of an improved oxygen radical absorbance capacity assay using fluorescein as the fluorescent probe.”; Ou, Boxin, Maureen Hampsch-Woodill, and Ronald L. Prior. Journal of agricultural and food chemistry 49.10 (2001): 4619-4626 incorporated herein by reference; and further in “Development and validation of oxygen radical absorbance capacity assay for lipophilic antioxidants using randomly methylated β-cyclodextrin as the solubility enhancer.”, Huang, Dejian, et al. Journal of Agricultural and Food Chemistry 50.7 (2002): 1815-1821, incorporated herein by reference.
Experimental Methodology: The ORAC Peroxynitrite measures the peroxynitrite radical. […] Dihydrorhodamine-123 is the chosen target protein, whose loss of fluorescence (with excitation at 485 nm and emission at 528 nm) is an indication of the extent of damage from its reaction with the peroxynitrite radical. […] Kinetic fluorescence profile is detected using Biotek plate reader with excitation at 485 nm and emission at 528 nm, at 37° C. […]

[O-]n1ccccc1=S.[O-]n1ccccc1=S.[Zn+2] [ZPT, zinc salt of 1-hydroxy-2-pyridinethione]
ORAC peroxynitrite antioxidant activity: only individual material that showed appreciable activity
